Results from patent US10150737B2, “Compounds for controlling arthropods” (priority 2013, dated 2018).

Columns and labels:
[1] = logP determination by HPLC on a reversed-phase column (C18); assay type: physicochemical; conditions: for logP^a): HPLC-MS method a); for log P: HPLC-MS
Rhipicephalus sanguineus = Rhipicephalus sanguineus - in vitro contact tests with adult brown dog ticks; assay type: in vivo; conditions: after 48 h, ticks dead or moribund
Summary of the method: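 Test tubes coated with active ingredient in acetone, 5 μg/cm^2 at 900 ppm. 5-10 adult ticks per tube, kept dark at room temperature for 48 h. Ticks then heated at 45-50° C ≤5 min; motionless or uncoordinated ticks scored dead/moribund, efficacy as % dead or moribund.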

Ctenocephalides felis [2] = assay: Ctenocephalides felis - in vitro contact tests with adult cat fleas; assay type: in vivo; conditions: application rate 5 μg/cm2 (=500 g/ha); after 48 h; fleas dead or moribund
Summary of the method: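 Tubes coated with compound in acetone (250 μl of 900 ppm solution gives 5 μg/cm^2 on 44.7 cm^2), solvent evaporated, then 5–10 adult fleas added and kept horizontal at room temperature and ambient humidity. After 48 h, dead or moribund (motionless/uncoordinated) fleas scored as % efficacy.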

Amblyomma hebraeum = assay: Amblyomma hebaraeum test (tick nymphs, immersion); assay type: in vivo; conditions: application rate 100 ppm; tick nymphs immersed one minute; after 42 days
Summary of the method: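 Tick nymphs immersed for one minute in compound diluted in water from a DMSO concentrate, then held on filter paper in a Petri dish in a climate-controlled cabinet. Kill (%) scored after 42 days; 100% means all ticks dead, 0% none.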

Boophilus microplus = Boophilus microplus - injection test; assay type: in vivo; conditions: application rate 20 μg/animal; injection into engorged adult female ticks; after 7 days
Summary of the method: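 Active ingredient in DMSO, 1 μl injected into the abdomen of 5 engorged adult female ticks, then held in a climate-controlled room. Efficacy scored after 7 days from laying of fertile eggs, with non-fertile-looking eggs kept about 42 days for larval hatch; 100% means no fertile eggs.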

[3] = tested on: Boophilus microplus Parkhurst strain, SP-resistant; assay: Boophilus microplus - dip test; assay type: in vivo; conditions: application rate 100 ppm; dip of engorged adult female ticks; after 7 days
Summary of the method: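 SP-resistant Parkhurst strain engorged adult female Boophilus microplus (8-10 per tube) dipped in DMSO-based compound dilutions in water, then kept in a climate-controlled room. Efficacy scored after 7 days from fertile egg laying, with larval hatch checked after about 42 days; 100% means no fertile eggs.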

Ctenocephalides felis [4] = assay: Ctenocephalides felis - oral test; assay type: in vivo; conditions: application rate 100 ppm in citrated cattle blood; after 2 days
Summary of the method: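 Compound in DMSO diluted into citrated cattle blood, fed through a parafilm membrane to about 20 unfed adult cat fleas. Kill in % scored after 2 days (100% = all dead).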

Lucilia cuprina = Lucilia cuprina test; assay type: in vivo; conditions: application rate 100 ppm; L1 larvae; after 2 days
Summary of the method: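 About 20 L1 larvae placed on minced horsemeat treated with compound, formulated in DMSO and diluted with water to test concentration. Kill in % scored after 2 days (100% = all larvae dead, 0% = none).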

Musca domestica = Musca domestica test; assay type: in vivo; conditions: application rate 100 ppm; adult houseflies; after 2 days
Summary of the method: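 Compound in DMSO, diluted with water, applied to a sugar-solution sponge; vessels hold 10 adult houseflies. Percent mortality scored after 2 days.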

Myzus persicae = Myzus persicae - spray test; assay type: in vivo; conditions: Chinese cabbage leaf discs, after 6 days
Summary of the method: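 Chinese cabbage leaf discs carrying all stages of Myzus persicae sprayed with compound in acetone/DMF diluted in water with 1000 ppm emulsifier. Efficacy (% aphids killed) assessed after 6 days.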

Phaedon cochleariae = Phaedon cochleariae - spray test; assay type: in vivo; conditions: larvae on Chinese cabbage leaf discs, after 7 days
Summary of the method: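 Chinese cabbage leaf discs sprayed with compound formulated in acetone/DMF and water containing 1000 ppm emulsifier; once dry, infested with mustard beetle larvae. Efficacy (% larvae killed) scored after 7 days.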

Spodoptera frugiperda = Spodoptera frugiperda - spray test; assay type: in vivo; conditions: caterpillars on maize leaf discs, after 7 days
Summary of the method: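 Maize leaf discs sprayed with compound formulated in acetone/DMF and diluted in water containing 1000 ppm alkylaryl polyglycol ether emulsifier, then infested with armyworm caterpillars after drying. Efficacy scored after 7 days as % caterpillars killed (100% all, 0% none).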

Tetranychus urticae = Tetranychus urticae - spray test, OP-resistant; assay type: in vivo; conditions: bean leaf discs, after 6 days
Summary of the method: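 Compound dissolved in acetone/DMF, diluted with water containing 1000 ppm alkylaryl polyglycol ether emulsifier to test concentrations. Bean leaf discs infested with all stages of spider mites were sprayed; % kill determined after 6 days (100% = all mites dead, 0% = none).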

[5] = reversed-phase column (C18), Table I-T3

Compound | efficacy (Rhipicephalus sanguineus; application rate 5 μg/cm2) [%] | efficacy (Ctenocephalides felis [2]) [%] | efficacy (kill) (Amblyomma hebraeum) [%] | efficacy (laying of fertile eggs) (Boophilus microplus) [%] | efficacy (laying of fertile eggs) [3] [%] | efficacy (kill) (Ctenocephalides felis [4]) [%] | efficacy (kill) (Lucilia cuprina) [%] | efficacy (kill) (Musca domestica) [%] | efficacy (Myzus persicae; application rate 100 g/ha) [%] | logP^a) ([1]; reversed-phase column (C18)) | log P [1, 5] | efficacy (Myzus persicae; application rate 500 g/ha) [%] | efficacy (Phaedon cochleariae; application rate 500 g/ha) [%] | efficacy (Spodoptera frugiperda; application rate 500 g/ha) [%] | efficacy (Tetranychus urticae; application rate 500 g/ha) [%] | logP^a) [1] | logP^a) [1, 5] | also measured
Cc1cc(C(F)(C(F)(F)F)C(F)(F)F)cc(C)c1-c1cc(-c2ccc(Cl)c(C(=O)NC3(C#N)CC3)c2)on1 [I-T22-2] | 100 | 100 | 100 | 100 | 100 | 100 | 100 | 100 | 100 | – | – | – | – | – | – | – | – | logP ([1]; HPLC, C18 reversed phase, acetonitrile/water with formic acid, EEC Directive 79/831 Annex V.A8): 4.6; efficacy (Phaedon cochleariae; application rate 100 g/ha): 100%; efficacy (Spodoptera frugiperda; application rate 100 g/ha): 100%; efficacy (Tetranychus urticae; application rate 100 g/ha): 90%
Cc1cc(C(F)(C(F)(F)F)C(F)(F)F)cc(C(F)(F)F)c1-n1cc(-c2cnc(C)c(C(=O)NC3(C#N)CC3)c2)cn1 [I-T3-119] | 100 | 100 | 100 | 100 | 100 | 100 | 100 | 100 | – | 3.6 | 3.6 | 90 | 100 | 100 | 100 | – | – | –
N#CC1(NC(=O)c2cc(-c3cnn(-c4c(Cl)cc(C(F)(C(F)(F)F)C(F)(F)F)cc4C(F)(F)F)c3)cnc2Cl)CC1 [I-T3-114] | – | 100 | 100 | 100 | 100 | 100 | 100 | 100 | – | 4.0 | 4.0 | 90 | 100 | 100 | 100 | – | – | efficacy (Rhipicephalus sanguineus; application rate 1 μg/cm2): 100%
O=C(NC1CC1)c1cc(-c2cnn(-c3c(Cl)cc(C(F)(C(F)(F)F)C(F)(F)F)cc3Cl)c2)cnc1Cl [I-T3-42] | 100 | 100 | 100 | 100 | 100 | 100 | 100 | 100 | – | – | – | 90 | 100 | 100 | 100 | 3.8 | 3.8 | –
CCc1cc(C(F)(F)C(F)(F)F)cc(C)c1-n1cc(-c2ccc(Cl)c(C(=O)NC3CC3)c2)cn1 [I-T3-81] | 100 | 100 | 100 | 100 | 100 | 100 | 100 | 90 | 90 | – | – | – | – | – | – | 4.3 | 4.3 | efficacy (Phaedon cochleariae; application rate 100 g/ha): 100%; efficacy (Spodoptera frugiperda; application rate 100 g/ha): 100%; efficacy (Tetranychus urticae; application rate 100 g/ha): 100%
Cc1cc(C(F)(C(F)(F)F)C(F)(F)F)cc(C(F)(F)F)c1-n1cc(-c2cnc(Cl)c(C(=O)NC3(C#N)CC3)c2)cn1 [I-T3-108] | – | 100 | 100 | 100 | 100 | 100 | 100 | 100 | – | 4.0 | 4.0 | 100 | 100 | 100 | 100 | – | – | efficacy (Rhipicephalus sanguineus; application rate 1 μg/cm2): 100%
Cc1cc(C(F)(C(F)(F)F)C(F)(F)F)cc(C)c1-n1cc(-c2cnc(Cl)c(C(=O)NC3(C#N)CC3)c2)cn1 [I-T3-21] | 100 | 100 | 100 | 100 | 100 | 100 | 100 | 100 | – | – | – | 90 | 100 | 100 | 100 | 3.7 | 3.7 | –
Cc1cc(C(F)(C(F)(F)F)C(F)(F)F)cc(C)c1-n1cc(-c2cnc(C)c(C(=O)NC3CC3)c2)cn1 [I-T3-96] | 100 | 100 | 100 | 100 | 100 | 100 | 100 | 100 | 90 | – | 3.3 | – | 100 | 100 | 100 | 3.3 | – | –
Cc1cc(C(F)(C(F)(F)F)C(F)(F)F)cc(C)c1-n1cc(-c2cnc(C)c(C(=O)NC3(C#N)CC3)c2)cn1 [I-T3-97] | 100 | 100 | 100 | 100 | 100 | 100 | 100 | 100 | – | – | 3.4 | 90 | 100 | 100 | 100 | 3.4 | – | –
